These results are taken from ChEMBL document CHEMBL1147758, “4-hydroxyisoleucine an unusual amino acid as antidyslipidemic and antihyperglycemic agent” (2006).

Each structure is given as a SMILES string.

Holding throughout (type): functional, Mesocricetus auratus
Assay [1] deals with Syrian golden hamster. Briefly: Lowering of free fatty acids in dyslipidemic male syrian hamsters at 50 mg/kg, po.
The subject of assay [2] is Syrian golden hamster. Briefly: Increase in HDL-cholesterol in dyslipidemic male syrian hamsters at 50 mg/kg, po.
Assay [3] deals with Syrian golden hamster. The assay can be described thus: Increase in ratio between HDL-cholesterol and total cholesterol in dyslipidemic male syrian hamsters at 50 mg/kg, po.
Assay [4] has as its system Syrian golden hamster. The assay can be described thus: Lowering of total cholesterol level in dyslipidemic male syrian hamsters at 50 mg/kg, po.
The test system of assay [5] is Syrian golden hamster. The assay can be described thus: Lowering of glycerol in dyslipidemic male syrian hamsters at 50 mg/kg, po.
Assay [6] deals with Syrian golden hamster. The assay can be described thus: Lowering of plasma triglyceride level in dyslipidemic male syrian hamsters at 50 mg/kg, po.

As to `C[C@@H]([C@H](C)O)[C@H](N)C(=O)O`, the Activity with Syrian golden hamster [1] is listed as 14%; with Syrian golden hamster [2], 8.7%; in the assay on Syrian golden hamster [4], 22%; with Syrian golden hamster [5], 4.9%; with Syrian golden hamster [6] it was 33%. For the same compound, in the assay with Syrian golden hamster [3], the Ratio is 39%.
